Consider 34 compounds from patent US10059713B2 (Takeda Pharmaceutical Company Limited, priority 2014, dated 2018).

Each structure is given as a SMILES string.

The target of the test is human GPR43 (Homo sapiens (Human), UniProt O15552). In words: Ca-Flux functional assay: determination of agonist/positive allosteric modulator (PAM) activity. It is filed as cell-based. Conditions: CHO-K1 Gα16 cells stably expressing human GPR43; compound added with EC20 sodium acetate; intracellular Ca2+ by FLIPR; does not distinguish agonist from PAM. The method in brief: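 CHO-K1 Gα16 cells stably expressing human GPR43, loaded with Calcium 5 dye 1 h; compounds (10-point half-log from 10 μM) added with sodium acetate at EC20. FLIPR calcium signal gave EC50, two wells per point; agonists and PAMs not distinguished.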
human GPR43, sequence (O15552 whole entry): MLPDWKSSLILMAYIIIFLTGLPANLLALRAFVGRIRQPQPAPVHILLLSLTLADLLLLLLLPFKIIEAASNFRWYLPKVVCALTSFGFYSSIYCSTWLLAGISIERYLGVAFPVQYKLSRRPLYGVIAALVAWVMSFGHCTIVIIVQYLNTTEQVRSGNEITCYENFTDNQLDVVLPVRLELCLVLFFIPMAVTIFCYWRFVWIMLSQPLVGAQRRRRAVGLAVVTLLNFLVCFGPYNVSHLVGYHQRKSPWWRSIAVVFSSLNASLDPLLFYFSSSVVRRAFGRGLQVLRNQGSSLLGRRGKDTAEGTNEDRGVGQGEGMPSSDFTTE
By EC50 is commonly meant the concentration at which the effect is half-maximal. A low value points to greater potency. Turning to `CC[C@H](C)Oc1nc(C)nc2c(S(=O)(=O)c3ccccc3)c(N)[nH]c12` [Example 246, 7-(benzenesulfonyl)-4-[(2S)-butan-2-yloxy]-2-methyl-5H-pyrrolo[3,2-d]pyrimidin-6-amine], the midpoint of the response, the EC50, lay at 0.064 µM.

In the case of `Cc1nc(OC(C)C2CCCC2)c2[nH]c(N)c(S(=O)(=O)c3ccccc3)c2n1` (stereo not shown) [Example 247, 7-(benzenesulfonyl)-4-(1-cyclopentylethoxy)-2-methyl-5H-pyrrolo[3,2-d]pyrimidin-6-amine], a half-maximal effect (EC50) was put at 0.016 µM. Regarding `CCC(CC)Oc1nc(C)nc2c(S(=O)(=O)c3ccccc3)c(N)[nH]c12` [Example 248, 7-(benzenesulfonyl)-2-methyl-4-(pentan-3-yloxy)-5H-pyrrolo[3,2-d]pyrimidin-6-amine], the EC50 came to 0.022 µM. This EC50 and that of the compound before are within 1.5-fold of each other. `Cc1nc(OCC2CCC2)c2[nH]c(N)c(S(=O)(=O)c3ccccc3)c2n1` [Example 249, 7-(benzenesulfonyl)-4-(cyclobutylmethoxy)-2-methyl-5H-pyrrolo[3,2-d]pyrimidin-6-amine]: the midpoint of the response, the EC50, lay at 0.031 µM. Compound `Cc1nc(OCC(C)(C)C)c2[nH]c(N)c(S(=O)(=O)c3ccccc3)c2n1` [Example 250, 7-(benzenesulfonyl)-4-(2,2-dimethylpropoxy)-2-methyl-5H-pyrrolo[3,2-d]pyrimidin-6-amine] came in with an EC50 of 0.114 µM. This EC50 lies about 3.7-fold higher than the previous one. As to `Cc1nc(OCC(C)C)c2[nH]c(N)c(S(=O)(=O)c3ccccc3)c2n1` [Example 251, 7-(benzenesulfonyl)-2-methyl-4-(2-methylpropoxy)-5H-pyrrolo[3,2-d]pyrimidin-6-amine], it took 0.049 µM to reach a half-maximal effect (EC50). Against the preceding compound, the EC50 is about 2.3-fold lower. For the compound `Cc1nc(OC2CCC2)c2[nH]c(N)c(S(=O)(=O)c3ccccc3)c2n1` [Example 252, 7-(benzenesulfonyl)-4-cyclobutoxy-2-methyl-5H-pyrrolo[3,2-d]pyrimidin-6-amine], the response was half-maximal at 0.067 µM (EC50).

In turn, `Cc1nc(OC2CCOC(C)(C)C2)c2[nH]c(N)c(S(=O)(=O)c3ccccc3)c2n1` (stereo not shown) [Example 253, 7-(benzenesulfonyl)-4-[(2,2-dimethyloxan-4-yl)oxy]-2-methyl-5H-pyrrolo[3,2-d]pyrimidin-6-amine] came in with an EC50 of 0.133 µM. Next, `Cc1nc(OC2CCC(F)(F)CC2)c2[nH]c(N)c(S(=O)(=O)c3ccccc3)c2n1` [Example 254, 7-(benzenesulfonyl)-4-[(4,4-difluorocyclohexyl)oxy]-2-methyl-5H-pyrrolo[3,2-d]pyrimidin-6-amine]: 0.029 µM; `Cc1nc(OC(C)C2CCCCC2)c2[nH]c(N)c(S(=O)(=O)c3ccccc3)c2n1` (stereo not shown) [Example 255, 7-(benzenesulfonyl)-4-(1-cyclohexylethoxy)-2-methyl-5H-pyrrolo[3,2-d]pyrimidin-6-amine]: 0.065 µM. In turn, `Cc1nc(OC(C)C2CCC2)c2[nH]c(N)c(S(=O)(=O)c3ccccc3)c2n1` (stereo not shown) [Example 256, 7-(benzenesulfonyl)-4-(1-cyclobutylethoxy)-2-methyl-5H-pyrrolo[3,2-d]pyrimidin-6-amine] had an EC50 of 0.018 µM. Against the preceding compound, the EC50 is about 3.6-fold lower. Compound `Cc1nc(OC2CCCC2)c2[nH]c(N)c(S(=O)(=O)c3ccccc3)c2n1` [Example 257, 7-(benzenesulfonyl)-4-(cyclopentyloxy)-2-methyl-5H-pyrrolo[3,2-d]pyrimidin-6-amine] registered an EC50 of 0.1 µM. Against the preceding compound, the EC50 is about 5.6-fold higher.

In turn, `Cc1nc(OC2CCOC2(C)C)c2[nH]c(N)c(S(=O)(=O)c3ccccc3)c2n1` (stereo not shown) [Example 258, 7-(benzenesulfonyl)-4-[(2,2-dimethyloxolan-3-yl)oxy]-2-methyl-5H-pyrrolo[3,2-d]pyrimidin-6-amine] had an EC50 of 0.209 µM. `Cc1nc(OC2CC(F)(F)C2)c2[nH]c(N)c(S(=O)(=O)c3ccccc3)c2n1` [Example 259, 7-(benzenesulfonyl)-4-(3,3-difluorocyclobutoxy)-2-methyl-5H-pyrrolo[3,2-d]pyrimidin-6-amine] yielded an EC50 of 0.066 µM. Turning to `Cc1nc(OC2CCC2)c2[nH]c(N)c(S(=O)(=O)c3ccccc3F)c2n1` [Example 260, 4-cyclobutoxy-7-(2-fluorobenzenesulfonyl)-2-methyl-5H-pyrrolo[3,2-d]pyrimidin-6-amine], the EC50 was determined as 0.01 µM.

Take `Cc1nc(N2CCO[C@@H](C)C2)c2[nH]c(N)c(S(=O)(=O)c3ccccc3Cl)c2n1` [Example 261, 7-(2-chlorobenzenesulfonyl)-2-methyl-4-[(2S)-2-methylmorpholin-4-yl]-5H-pyrrolo[3,2-d]pyrimidin-6-amine]: the EC50 is 0.014 µM. `Cc1nc(N2CCOC(C)C2)c2[nH]c(N)c(S(=O)(=O)c3ccc(F)cc3F)c2n1` (stereo not shown) [Example 262, 7-(2,4-difluorobenzenesulfonyl)-2-methyl-4-(2-methylmorpholin-4-yl)-5H-pyrrolo[3,2-d]pyrimidin-6-amine] displayed an EC50 of 0.005 µM. For the compound `Cc1nc(N2CCOC(C)C2)c2[nH]c(N)c(S(=O)(=O)c3c(F)cccc3F)c2n1` (stereo not shown) [Example 263, 7-(2,6-difluorobenzenesulfonyl)-2-methyl-4-(2-methylmorpholin-4-yl)-5H-pyrrolo[3,2-d]pyrimidin-6-amine], the EC50 was determined as 0.006 µM. Compound `CSc1nc(N2CCOC(C)C2)c2[nH]c(N)c(S(=O)(=O)c3cccc(F)c3)c2n1` (stereo not shown) [Example 264, 7-(3-fluorobenzenesulfonyl)-4-(2-methylmorpholin-4-yl)-2-(methylsulfanyl)-5H-pyrrolo[3,2-d]pyrimidin-6-amine] came in with an EC50 of 0.045 µM. Compared with the last compound, the EC50 is about 7.5-fold higher. The compound `CC1CN(c2nc(C(F)(F)F)nc3c(S(=O)(=O)c4cccc(F)c4)c(N)[nH]c23)CCO1` (stereo not shown) [Example 265, 7-(3-fluorobenzenesulfonyl)-4-(2-methylmorpholin-4-yl)-2-(trifluoromethyl)-5H-pyrrolo[3,2-d]pyrimidin-6-amine] came in with an EC50 of 0.068 µM. As to `Cc1nc(N2CCOC(CF)C2)c2[nH]c(N)c(S(=O)(=O)c3ccccc3F)c2n1` (stereo not shown) [Example 266, 7-(2-fluorobenzenesulfonyl)-4-[2-(fluoromethyl)morpholin-4-yl]-2-methyl-5H-pyrrolo[3,2-d]pyrimidin-6-amine], it took 0.003 µM to reach a half-maximal effect (EC50). Turning to `COc1ccc(F)c(S(=O)(=O)c2c(N)[nH]c3c(N4CCOC(C)C4)nc(C)nc23)c1` (stereo not shown) [Example 267, 7-(2-fluoro-5-methoxybenzenesulfonyl)-2-methyl-4-(2-methylmorpholin-4-yl)-5H-pyrrolo[3,2-d]pyrimidin-6-amine], the EC50 came to 0.004 µM. Turning to `CC1CN(c2nc(C(F)(F)F)nc3c(S(=O)(=O)c4ccccc4F)c(N)[nH]c23)CCO1` (stereo not shown) [Example 268, 7-(2-fluorobenzenesulfonyl)-4-(2-methylmorpholin-4-yl)-2-(trifluoromethyl)-5H-pyrrolo[3,2-d]pyrimidin-6-amine], it took 0.017 µM to reach a half-maximal effect (EC50).

Regarding `CSc1nc(N2CCOC(C)C2)c2[nH]c(N)c(S(=O)(=O)c3ccccc3F)c2n1` (stereo not shown) [Example 269, 7-(2-fluorobenzenesulfonyl)-4-(2-methylmorpholin-4-yl)-2-(methylsulfanyl)-5H-pyrrolo[3,2-d]pyrimidin-6-amine], the EC50 was 0.009 µM. The compound `CC1CN(c2nc(N(C)C)nc3c(S(=O)(=O)c4ccccc4F)c(N)[nH]c23)CCO1` (stereo not shown) [Example 270, 7-(2-fluorobenzenesulfonyl)-2-N,2-N-dimethyl-4-(2-methylmorpholin-4-yl)-5H-pyrrolo[3,2-d]pyrimidine-2,6-diamine] came in with an EC50 of 0.017 µM.

On to `COc1nc(N2CCOC(C)C2)c2[nH]c(N)c(S(=O)(=O)c3ccccc3F)c2n1` (stereo not shown) [Example 271, 7-(2-fluorobenzenesulfonyl)-2-methoxy-4-(2-methylmorpholin-4-yl)-5H-pyrrolo[3,2-d]pyrimidin-6-amine], for which the concentration giving a half-maximal response (EC50) was determined as 0.008 µM. As for `Cc1nc(OC(C)C)c2[nH]c(N)c(S(=O)(=O)c3ccccc3F)c2n1` [Example 272, 7-(2-fluorobenzenesulfonyl)-2-methyl-4-(propan-2-yloxy)-5H-pyrrolo[3,2-d]pyrimidin-6-amine], the EC50 stood at 0.034 µM. In turn, `Cc1nc(OC2CCOC(C)(C)C2)c2[nH]c(N)c(S(=O)(=O)c3ccccc3F)c2n1` (stereo not shown) [Example 273, -[(2,2-dimethyloxan-4-yl)oxy]-7-(2-fluorobenzenesulfonyl)-2-methyl-5H-pyrrolo[3,2-d]pyrimidin-6-amine] displayed an EC50 of 0.063 µM. The compound `Cc1nc(OC(C)C(F)(F)F)c2[nH]c(N)c(S(=O)(=O)c3ccccc3F)c2n1` (stereo not shown) [Example 274, 7-(2-fluorobenzenesulfonyl)-2-methyl-4-[(1,1,1-trifluoropropan-2-yl)oxy]-5H-pyrrolo[3,2-d]pyrimidin-6-amine] yielded an EC50 of 0.008 µM. Compound `Cc1nc(N2CCO[C@H](C)[C@H]2C)c2[nH]c(N)c(S(=O)(=O)c3ccccc3F)c2n1` [Example 276, 4-[(RR,SS)-2,3-dimethylmorpholin-4-yl]-7-(2-fluorobenzenesulfonyl)-2-methyl-5H-pyrrolo[3,2-d]pyrimidin-6-amine] displayed an EC50 of 0.016 µM. `CC1(C)CN(c2ccnc3c(S(=O)(=O)c4ccccc4)c(N)[nH]c23)CCO1` [Example 277, 3-(benzenesulfonyl)-7-(2,2-dimethylmorpholin-4-yl)-H-pyrrolo[3,2-b]pyridin-2-amine] displayed an EC50 of 0.04 µM. Consider `Cc1nc(N2CCOC(C)(C)C2)c2[nH]c(N)c(S(=O)(=O)c3ccc(F)cc3F)c2n1` [Example 278, 7-(2,4-difluorobenzenesulfonyl)-4-(2,2-dimethylmorpholin-4-yl)-2-methyl-5H-pyrrolo[3,2-d]pyrimidin-6-amine], for which a half-maximal effect (EC50) was put at 0.006 µM. In the case of `Cc1nc(N2CCOC(C)(C)C2)c2[nH]c(N)c(S(=O)(=O)c3ccc(Cl)cc3F)c2n1` [Example 279, 7-(4-chloro-2-fluorobenzenesulfonyl)-4-(2,2-dimethylmorpholin-4-yl)-2-methyl-5H-pyrrolo[3,2-d]pyrimidin-6-amine], a half-maximal response (EC50) required 0.004 µM. Against the preceding compound, the EC50 is about 1.5-fold lower.

`Cc1nc(N2CCOC(C)(C)C2)c2[nH]c(N)c(S(=O)(=O)c3cccc(F)c3F)c2n1` [Example 280, 7-(2,3-difluorobenzenesulfonyl)-4-(2,2-dimethylmorpholin-4-yl)-2-methyl-5H-pyrrolo[3,2-d]pyrimidin-6-amine] yielded an EC50 of 0.003 µM.
